From ChEMBL document CHEMBL5726496, “Piperidine derivatives as HDAC1/2 inhibitors” (2017)
pIC50: −log10 of the molar value.

biological target: Histone deacetylase 1 (Homo sapiens, UniProt Q13547); experiment: Enzyme Assay: Compounds for testing were diluted in DMSO to 50 fold the final concentration and a ten point three fold dilution series was made. The compounds were diluted in assay buffer (50 mM HEPES, pH 7.4, 100 mM KCl, 0.001% Tween-20, 0.05% BSA, 20 μM tris(2-carboxyethyl)phosphine) to 6 fold their final concentration. The HDAC enzymes (purchased from BPS Biosciences) were diluted to 1.5 fold their final concentration in assay buffer and pre-incubated with the compounds for 24 hours prior to addition of the substrate.
Sequence (Q13547 whole entry): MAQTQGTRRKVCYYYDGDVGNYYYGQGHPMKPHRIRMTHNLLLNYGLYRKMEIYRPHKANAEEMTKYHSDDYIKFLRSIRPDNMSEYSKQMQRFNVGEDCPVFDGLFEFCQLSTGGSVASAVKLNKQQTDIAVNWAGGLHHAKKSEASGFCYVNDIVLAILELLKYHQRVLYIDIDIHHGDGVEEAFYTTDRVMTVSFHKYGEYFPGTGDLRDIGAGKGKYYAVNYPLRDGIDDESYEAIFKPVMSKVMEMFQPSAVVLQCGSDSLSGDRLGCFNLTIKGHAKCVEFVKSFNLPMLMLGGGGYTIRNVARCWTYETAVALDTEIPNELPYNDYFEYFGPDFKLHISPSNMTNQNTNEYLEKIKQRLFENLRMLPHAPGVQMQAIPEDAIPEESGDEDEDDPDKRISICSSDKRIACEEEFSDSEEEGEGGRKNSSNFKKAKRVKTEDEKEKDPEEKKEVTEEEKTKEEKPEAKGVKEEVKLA

Row | pIC50 | SMILES
1 | 7.66 | Nc1ccc(-c2ccccc2)cc1NC(=O)c1cnc(NC2CCN(C(=O)Cc3c[nH]c4ccccc34)CC2)nc1
2 | 7.32 | CN(c1ncc(C(=O)Nc2cc(-c3ccccc3)ccc2N)cn1)C1CCN(C(=O)Cc2c[nH]c3ccccc23)CC1
3 | 7.85 | CC1(Nc2ncc(C(=O)Nc3cc(-c4ccccc4)ccc3N)cn2)CCNCC1
